Laboratory results published in PubChem BioAssay AID266 (DTP/NCI, 2004).
Values joined by “and” are separate entries in the source; they are usually repeats but may differ in a detail not shown here. Identical values can stand only once. Results filed as inconclusive are left out.

System: Nude mice, LX-1 lung xenograft intrarenal, tumor weight T/C
Test: NCI In Vivo Anticancer Drug Screen. Data for tumor model Human Lung LX-1 Xenograft (intrarenal inoculation) in NU/NU BALB/C (nude) mice
Conditions: endpoint: mean tumor weight change, higher = larger tumour
Method: The antitumor activity of compounds was measured in mice bearing transplantable tumors. Survival or tumor size were measured and the results are expressed as the measurement made in the treated group (T) divided by the measurement made in the vehicle treated control group (C). The tumor model used in this assay is Human Lung LX-1 Xenograft (intrarenal inoculation) in NU/NU BALB/C (nude) mice

[1] = dose: 150.0 mg/kg/injection, schedule: Q04DX003 (sc), vehicle: saline
[2] = dose: 300.0 mg/kg/injection, schedule: Q04DX003 (sc), vehicle: saline

In the case of `CNc1nc(NC)nc(NC)n1`, the T/C (dose: 25.0 mg/kg/injection, schedule: Q01DX010 (sc), vehicle: Klucel (hydroxypropylcellulose) (HPC)) is reported as 85 % of control and the T/C (dose: 100.0 mg/kg/injection, schedule: Q01DX010 (sc), vehicle: Klucel (hydroxypropylcellulose) (HPC)) is reported as 107 % of control.

In the case of `CC(C#N)(C#N)N=Nc1ccc(Cl)cc1Cl`, the T/C (dose: 600.0 mg/kg/injection, schedule: Q04DX003 (sc), vehicle: saline with Tween-80) is reported as 124 % of control, the T/C (dose: 1200.0 mg/kg/injection, schedule: Q04DX003 (sc), vehicle: saline with Tween-80) is reported as 86 % of control and the T/C (dose: 2400.0 mg/kg/injection, schedule: Q04DX003 (sc), vehicle: saline with Tween-80) is reported as 102 % of control.

`Nc1nc(=S)c2[nH]cnc2[nH]1` was tested, and the T/C (dose: 0.4 mg/kg/injection, schedule: Q01DX010 (sc), vehicle: Klucel (hydroxypropylcellulose) (HPC)) was 105 % of control, the T/C (dose: 1.6 mg/kg/injection, schedule: Q01DX010 (sc), vehicle: Klucel (hydroxypropylcellulose) (HPC)) was 76 % of control and the T/C (dose: 3.2 mg/kg/injection, schedule: Q01DX010 (sc), vehicle: Klucel (hydroxypropylcellulose) (HPC)) was 58 % of control.

With `C1CN2CN3CCN(CN1C3)C2` the T/C (dose: 50.0 mg/kg/injection, schedule: Q01DX010 (sc), vehicle: saline) was 68 % of control, the T/C (dose: 200.0 mg/kg/injection, schedule: Q01DX010 (sc), vehicle: saline) was 48 % of control and the T/C (dose: 400.0 mg/kg/injection, schedule: Q01DX010 (sc), vehicle: saline) was 23 % of control.

For `O=C1NC(O)CCN1C1OC(CO)C(O)C1O` (stereo not drawn), the T/C (dose: 200.0 mg/kg/injection, schedule: Q01DX010 (sc), vehicle: water) was 257 % of control, the T/C (dose: 400.0 mg/kg/injection, schedule: Q01DX010 (sc), vehicle: water) was 196 % of control and the T/C (dose: 800.0 mg/kg/injection, schedule: Q01DX010 (sc), vehicle: water) was 223 % of control. The T/C (dose: 1600.0 mg/kg/injection, schedule: Q01DX010 (sc), vehicle: water) was 176 % of control.

For `CN(N=O)C(=O)N[C@@H](C=O)[C@@H](O)[C@H](O)[C@H](O)CO`, the T/C [1] was 40 % of control and the T/C [2] was 4 % of control.

In the case of `O=C1N=C(Oc2ccccc2)SC1=O`, the T/C (dose: 100.0 mg/kg/injection, schedule: Q04DX003 (sc), vehicle: saline with Tween-80) is reported as 87 % of control, the T/C (dose: 200.0 mg/kg/injection, schedule: Q04DX003 (sc), vehicle: saline with Tween-80) is reported as 93 % of control and the T/C (dose: 400.0 mg/kg/injection, schedule: Q04DX003 (sc), vehicle: saline with Tween-80) is reported as 54 % of control.

With `COc1ccc(OC)c(/C=C/c2ccnc3ccccc23)c1` the T/C (dose: 50.0 mg/kg/injection, schedule: Q01DX010 (sc), vehicle: saline with Tween-80) was 65 % of control, the T/C (dose: 100.0 mg/kg/injection, schedule: Q01DX010 (sc), vehicle: saline with Tween-80) was 152 % of control and the T/C (dose: 200.0 mg/kg/injection, schedule: Q01DX010 (sc), vehicle: saline with Tween-80) was 251 % of control. The T/C (dose: 400.0 mg/kg/injection, schedule: Q01DX010 (sc), vehicle: saline with Tween-80) was 121 % of control.

With `O=C1CCC(=O)N1CO` the T/C [1] was 95 % of control, the T/C [2] was 93 % of control and the T/C (dose: 600.0 mg/kg/injection, schedule: Q04DX003 (sc), vehicle: saline) was 82 % of control. The T/C (dose: 1200.0 mg/kg/injection, schedule: Q04DX003 (sc), vehicle: saline) was 63 % of control.

In the case of `CCOC(=O)N(C)N=NC`, the T/C (dose: 7.5 mg/kg/injection, schedule: Q04DX003 (ip), vehicle: saline) is reported as 57 % of control, the T/C (dose: 15.0 mg/kg/injection, schedule: Q04DX003 (ip), vehicle: saline) is reported as 51 % of control and the T/C (dose: 60.0 mg/kg/injection, schedule: Q04DX003 (ip), vehicle: saline) is reported as 14 % of control and 24 % of control.

In the case of `COc1cccc2c1C(=O)c1c(O)c3c(c(O)c1C2=O)CC(O)(C(=O)CO)CC3OC1CC(N)C(O)C(C)O1` (stereo not drawn), the T/C (dose: 50.0 mg/kg/injection, schedule: Q04DX003 (sc), vehicle: water) is reported as 86 % of control, the T/C (dose: 100.0 mg/kg/injection, schedule: Q04DX003 (sc), vehicle: water) is reported as 103 % of control and the T/C (dose: 200.0 mg/kg/injection, schedule: Q04DX003 (sc), vehicle: water) is reported as 90 % of control. The T/C (dose: 400.0 mg/kg/injection, schedule: Q04DX003 (sc), vehicle: water) was 103 % of control.

`CCS/C(SC)=C(/c1ccccc1)[P+](c1ccccc1)(c1ccccc1)c1ccccc1` was tested, and the T/C (dose: 9.38 mg/kg/injection, schedule: Q04DX003 (sc), vehicle: Klucel (hydroxypropylcellulose) (HPC)) was 79 % of control, the T/C (dose: 18.75 mg/kg/injection, schedule: Q04DX003 (sc), vehicle: Klucel (hydroxypropylcellulose) (HPC)) was 76 % of control and the T/C (dose: 37.5 mg/kg/injection, schedule: Q04DX003 (sc), vehicle: Klucel (hydroxypropylcellulose) (HPC)) was 110 % of control.
